Source: patent US20210290732A1, “GLP-1R and GCGR Agonists, Formulations, and Methods of Use” (Spitfire Pharma LLC, priority 2020, published 2021)
Where “and” joins values, the source holds several entries; their conditions need not be identical. Equal entries are not always repeated. Positions of bridges follow the written chain, without caps; N, C: chain ends. Non-standard residues stand in square brackets, D forms with d. No end group written: not given here. GC8 = D-glucoside-derived uronic acid with C8 alkyl chain; Aib = CC(C)(N)C(=O)O

Columns and labels:
human GLP-1R = target: T1, human GLP-1R (Homo sapiens, UniProt P43220); experiment: cAMP receptor activation assay, human GLP-1R cloned into CHO cells (DiscoverX LeadHunter / cAMP Hunter); type: cell-based; settings: for Selectivity Ratio GLP-1R vs GCGR: SR = GCGR EC50/GLP-1 EC50, 0.1% BSA; for EC50: cAMP, CHO cells, 0.1% BSA containing buffers, read-out: pEC50 (SE) hu GLP-1 (converted)
T1 construct: host or cells: CHO-K1
T1 sequence (P43220 24-463): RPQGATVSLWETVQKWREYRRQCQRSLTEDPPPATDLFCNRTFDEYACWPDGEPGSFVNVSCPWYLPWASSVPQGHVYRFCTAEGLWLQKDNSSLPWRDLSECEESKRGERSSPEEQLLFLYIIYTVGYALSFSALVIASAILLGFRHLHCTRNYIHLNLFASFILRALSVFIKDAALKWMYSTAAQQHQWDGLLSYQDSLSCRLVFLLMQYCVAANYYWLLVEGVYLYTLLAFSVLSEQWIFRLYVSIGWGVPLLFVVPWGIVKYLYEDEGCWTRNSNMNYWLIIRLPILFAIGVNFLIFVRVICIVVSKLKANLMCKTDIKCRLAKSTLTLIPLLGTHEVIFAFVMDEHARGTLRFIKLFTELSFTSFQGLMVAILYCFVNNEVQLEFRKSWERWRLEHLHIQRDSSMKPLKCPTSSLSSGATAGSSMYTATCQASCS

[1] = pharmacokinetics in Gottingen minipigs (cassette sc dosing, 20 nmol/kg); type: in vivo, Gottingen minipig; settings: 20 nmol/kg sc; for plasma levels compared to liraglutide: analogue 2 at 4 h, 4 at 2-12 h, 5 at 2, 12, 24 h
Text: This study uses a cassette style dosing, to minimize large animal usage, but with injection subcutaneously at separate sites to preclude each compound's influencing uptake of another compound. A total of two male Gottingen minipigs were assigned to study. The animals were pair housed in pens on raised floor caging. The animals weighed between approximately 11-15 kg at transfer and approximately 5-8 months of age. The same animals were to be used for multiple phases, following a minimum 1-week washout period. To facilitate dosing and to ensure animal safety during the dosing procedure, animals were sedated with Telazol (IM, 4-6 mg/kg) prior to dosing. Dosing was subcutaneous via bolus injection between the skin and underlying layers of tissue in the ventral region of the animal. A total of […] sites were used for each phase with different compounds dosed at each of the 4 sites. Compounds are formulated in saline containing 0.2% BSA […] at pH 3.5. Each stock solution was diluted with normal saline (pH 7.4) to the required final conc and sterile filtered. Dosing is at 20 nmol/kg. Blood samples were collected pre-dose and at 2, 4, 6, 8, 12, 24, 36, 48, 72 and 96-hours post-dose. At each blood collection time point a 1 mL sample is taken from the jugular vein into K2EDTA tubes on ice before processing to plasma by centrifugation. The plasma samples containing the 4 test compounds were sent to Climax Labs for separation and quantitation by LC-MS/MS as noted below (2.5.3).
Analysis was carried out at Climax Laboratories (San Jose, Calif.) on an API-4000 Mass Spectrometer, ESI positive, MRM scan. Samples were loaded on a Shimadzu HPLC/CTC Autosampler with an ACE C4 column (2.1×50 mm, 5 μm). Elution was by gradient from aqueous 0.5% formic acid, 5 mM NH4OAc to 0.5% formic acid in CH3CN/H2O (9:1). […] After transfer to a 96 well plate, a 40 μL sample was injected and the individual compound peaks were quantitated with standard curves. […] The quantitation limit is 1-2 ng/mL, depending on analog structure.

GCGR = GCGR (Homo sapiens, UniProt P47871); experiment: cAMP receptor activation assay, human GCGR cloned into CHO cells (DiscoverX LeadHunter / cAMP Hunter); type: cell-based; design: host or cells: CHO-K1; settings: cAMP, CHO cells, 0.1% BSA containing buffers; read-out: pEC50 (SE) huGCGR (converted)
[2] = clinical studies, cited from earlier work
[3] = CMC of Polysorbate 20 in F58 buffer pH 7.7 with added ALT-801 by surface tensiometry; type: physicochemical
Text: CMC shifts are simply calculated as CMC in the presence of the ALT-801 less the CMC for the surfactant alone in solution.

[4] = target: human glucagon receptor (GCGR) (human, UniProt P47871 26-477); experiment: cell-based or functional assay
[5] = target: human glucagon-like peptide 1 receptor (GLP-1R) (human, UniProt P43220 24-463); experiment: cell-based or functional assay
Sequence of human glucagon-like peptide 1 receptor (GLP-1R) (P43220 24-463): as above

Selectivity Ratio GLP-1R vs GCGR (human GLP-1R) | EC50 (human GLP-1R) | plasma levels compared to liraglutide [1] | EC50 (GCGR) | Molecule | other results
2 | 0.0126 nM | Significantly higher plasma levels | 0.02 nM | CCCCCCCCCCO[C@@H]1O[C@H](C(=O)NCCCC[C@H](NC(=O)[C@@H](NC(=O)[C@H](Cc2ccccc2)NC(=O)[C@H](CCC(=O)O)NC(=O)[C@@H]2CCCCNC(=O)CC[C@H](NC(=O)[C@H](CC(=O)O)NC(=O)[C@H](CC(C)C)NC(=O)[C@H](Cc3ccc(O)cc3)NC(=O)[C@H](CCCCN)NC(=O)[C@H](CO)NC(=O)[C@H](Cc3ccc(O)cc3)NC(=O)[C@H](CC(=O)O)NC(=O)[C@H](CO)NC(=O)[C@@H](NC(=O)[C@H](Cc3ccccc3)NC(=O)[C@@H](NC(=O)CNC(=O)[C@H](CCC(N)=O)NC(=O)C(C)(C)NC(=O)[C@@H](N)Cc3c[nH]cn3)[C@@H](C)O)[C@@H](C)O)C(=O)N[C@@H](CCC(N)=O)C(=O)N[C@@H](C)C(=O)N[C@@H](C)C(=O)N2)[C@@H](C)CC)C(=O)N[C@@H](Cc2c[nH]c3ccccc23)C(=O)N[C@@H](CC(C)C)C(=O)N[C@@H](CC(C)C)C(=O)N[C@@H](CCC(N)=O)C(=O)N[C@H](C(N)=O)[C@@H](C)O)[C@@H](O)[C@H](O)[C@H]1O [analogue 2] | 
2 | 0.0158 nM | Significantly higher plasma levels | 0.0302 nM | CCCCCCCCCCCCCCO[C@@H]1O[C@H](C(=O)NCCCC[C@H](NC(=O)[C@@H](NC(=O)[C@H](Cc2ccccc2)NC(=O)[C@H](CCC(=O)O)NC(=O)[C@@H]2CCCCNC(=O)CC[C@H](NC(=O)[C@H](CC(=O)O)NC(=O)[C@H](CC(C)C)NC(=O)[C@H](Cc3ccc(O)cc3)NC(=O)[C@H](CCCCN)NC(=O)[C@H](CO)NC(=O)[C@H](Cc3ccc(O)cc3)NC(=O)[C@H](CC(=O)O)NC(=O)[C@H](CO)NC(=O)[C@@H](NC(=O)[C@H](Cc3ccccc3)NC(=O)[C@@H](NC(=O)CNC(=O)[C@H](CCC(N)=O)NC(=O)C(C)(C)NC(=O)[C@@H](N)Cc3c[nH]cn3)[C@@H](C)O)[C@@H](C)O)C(=O)N[C@@H](CCC(N)=O)C(=O)N[C@@H](C)C(=O)N[C@@H](C)C(=O)N2)[C@@H](C)CC)C(=O)N[C@@H](Cc2c[nH]c3ccccc23)C(=O)N[C@@H](CC(C)C)C(=O)N[C@@H](CC(C)C)C(=O)N[C@@H](CCC(N)=O)C(=O)N[C@H](C(N)=O)[C@@H](C)O)[C@@H](O)[C@H](O)[C@H]1O [analogue 4] | Cmax and PK profiles [1]: optimal
 |  |  |  | CCCCCCCCCCCCCCCC(=O)N[C@@H](CCC(=O)NCCCC[C@H](NC(=O)[C@H](CC(=O)O)NC(=O)[C@H](CO)NC(=O)[C@@H](NC(=O)[C@H](Cc1ccccc1)NC(=O)[C@@H](NC(=O)CNC(=O)[C@H](CCC(N)=O)NC(=O)[C@H](CO)NC(=O)[C@@H](N)Cc1c[nH]cn1)[C@@H](C)O)[C@@H](C)O)C(=O)N[C@@H](CO)C(=O)N[C@@H](CCC(=O)O)C(=O)N[C@@H](Cc1ccc(O)cc1)C(=O)N[C@@H](CC(C)C)C(=O)N[C@@H](CC(=O)O)C(=O)N[C@@H](CO)C(=O)N[C@@H](CCC(=O)O)C(=O)N[C@@H](CCCNC(=N)N)C(=O)N[C@@H](C)C(=O)N[C@@H](CCCNC(=N)N)C(=O)N[C@@H](CC(=O)O)C(=O)N[C@@H](Cc1ccccc1)C(=O)N[C@H](C(=O)N[C@@H](C)C(=O)N[C@@H](Cc1c[nH]c2ccccc12)C(=O)N[C@@H](CC(C)C)C(=O)N[C@@H](CCC(=O)O)C(=O)N[C@@H](C)C(=O)NCC(=O)NCC(=O)O)C(C)C)C(=O)O [cotadutide] | reduction in liver fat content ([2]; 6 weeks): 39%; weight loss over 26 weeks [2]: 5.4%
 |  |  |  | Polysorbate 20 | Polysorbate 20 CMC Value, No ALT-801, Average [3]: 0.722 mg/mL; Polysorbate 20 CMC Value, No ALT-801 ([3]; Test # 1 and 2): 0.721 mg/mL and 0.722 mg/mL
 |  |  |  | H[Aib]QGTFTSDYSKYLDEQAAKEFIK(GC8)WLLQT-NH2 (lactam 16-20) [Analogue 1 (SEQ ID NO: 12)] | EC50 (pM) hGCGR, cAMP accumulation, 0.1% BSA [4]: 20 pM; EC50 (pM) hGLP-1R, cAMP accumulation, 0.1% BSA [5]: 8 pM
